Results reported in patent publication US9510598B2, “Nitrogen-containing heterocyclic compounds for plant disease control” (BAYER CROPSCIENCE AG, priority 2012, dated 2016).
Where two headings read alike, the source gives them in different places.

Tests used:
Septoria tritici = test: In vivo preventive test on Septoria tritici (leaf spot on wheat); settings: 500 ppm; wheat plants sprayed 24 hours before contamination; grading 21 to 28 days after contamination vs control plants
Method: Wheat plants (“Scipion” variety), sown in starter cups on a 50/50 peat soil-pozzolana substrate and grown at 22° C. (12 h)/20° C. (12 h), are treated at the 1-leaf stage (10 cm height) by spraying with the active ingredient prepared as described above. Plants, used as controls, are treated with the mixture of acetone/tween/DMSO/water not containing the active material. After 24 hours, the plants are contaminated by spraying the leaves with an aqueous suspension of cryopreserved Septoria tritici spores (500 000 spores per ml). […] Grading (% of efficacy) is carried out 21 to 28 days after the contamination, in comparison with the control plants.

Botrytis cinerea = test: In vivo preventive test on Botrytis cinerea (grey mould); settings: 500 ppm; gherkin plants sprayed 24 hours before contamination; grading 4-5 days after contamination vs control plants
Method: Gherkin plants (“Vert petit de Paris” variety), sown in starter cups on a 50/50 peat soil-pozzolana substrate and grown at 24° C., are treated at the Z11 cotyledon stage by spraying with the active ingredient prepared as described above. Plants, used as controls, are treated with the mixture of acetone/tween/DMSO/water not containing the active material. After 24 hours, the plants are contaminated by spraying the cotyledons with an aqueous suspension of cryopreserved Botrytis cinerea spores (50 000 spores per ml). The spores are suspended in a nutrient solution composed of 10 g/L of PDB, 50 g/L of D-Fructose, 2 g/L of NH4NO3 and 1 g/L of KH2PO4. The contaminated gherkin plants are incubated at 17° C. and at 80% relative humidity. Grading (% of efficacy) is carried out 4-5 days after the contamination, in comparison with the control plants.

[1] = type: physicochemical; settings: for Log P: method [a]: HPLC/LC-MS on reversed phase at pH 2.7, 0.1% formic acid in water and acetonitrile
[2] = HPLC on reversed phase columns, method [a]: pH 2.7, 0.1% formic acid in water / acetonitrile, linear gradient 10% to 95% acetonitrile
[3] = method [a]: HPLC/LC-MS on reversed phase at pH 2.7, 0.1% formic acid in water / acetonitrile, gradient 10% to 95% acetonitrile
[4] = linear gradient 10% to 95% acetonitrile
[5] = method [a]: HPLC/LC-MS on reversed phase at pH 2.7, 0.1% formic acid in water / acetonitrile, linear gradient 10% to 95% acetonitrile

SMILES | % of efficacy (protection) (Septoria tritici) | % of efficacy (protection) (Botrytis cinerea) | log P [1, 2] | log P [1, 3] | Log P [1, 4] | log P [1, 5] | chromatographic logP ([1]; pH 2.7)
CC(C)NC(=O)C1(C2CC2)CC(c2ccc3ncc(Br)cc3c2)=NO1 (centres unmarked) [compound 267] | 93% | 85% | 3.25[a] | – | – | – | –
CCC1(C(=O)NC2CCC2)CC(c2ccc3ncc(Br)cc3c2)=NO1 (centres unmarked) [compound 498] | 71% | 92% | – | 3.31[a] | – | – | –
CCC(C)NC(=O)C1(C)CC(c2cc3cc(Br)cnc3c(F)c2F)=NO1 (centres unmarked) [compound 22] | 83% | 93% | – | – | 3.31^[a] | – | –
CCNC(=O)C1(C)CC(c2ccc3ncc(Br)cc3c2)=NO1 (centres unmarked) [compound 528] | 97% | 99% | 2.39[a] | – | – | – | –
C#Cc1cnc2ccc(C3=NOC(C)(C(=O)NC4COC4)C3)cc2c1 (centres unmarked) [compound 238] | 93% | 82% | 1.75^[a] | – | – | – | –
C#Cc1cnc2ccc(C3=NOC(C)(C(=S)NCc4cnc(C)cn4)C3)cc2c1 (centres unmarked) [compound 481] | 86% | 97% | – | 2.84[a] | – | – | –
CCC1(C(=O)NC2CC2)CC(c2ccc3ncc(Br)cc3c2)=NO1 (centres unmarked) [compound 69] | 97% | 99% | – | – | – | 2.75^[a] | –
CC1(C(=O)NCC2CCCO2)CC(c2ccc3ncc(Br)cc3c2)=NO1 (centres unmarked) [compound 130] | – | 89% | – | – | – | 2.45^[a] | –
CCn1cc(CNC(=O)C2(C)CC(c3ccc4ncc(SC)cc4c3)=NO2)c(C)n1 (centres unmarked) [compound 147] | – | 88% | – | – | – | 2.09^[a] | –
CCOc1cnc2ccc(C3=NOC(C)(C(=O)NC(C)C)C3)cc2c1 (centres unmarked) [compound 78] | 97% | 74% | – | – | – | 2.43^[a] | –
CC1(C(=O)NC2CCC2)CC(c2cc(Cl)c3ncc(Br)cc3c2)=NO1 (centres unmarked) [compound 539] | 83% | 100% | 3.48[a] | – | – | – | –
CC1(C(=O)NCC(F)(F)F)CC(c2ccc3ncc(Br)cc3c2)=NO1 (centres unmarked) [compound 493] | 97% | 100% | – | 2.84[a] | – | – | –
CC1(CNC(=O)C2(C)CC(c3ccc4ncc(Br)cc4c3)=NO2)CCCO1 (centres unmarked) [compound 131] | 83% | 92% | – | – | – | 2.73^[a] | –
C=C(C)C1(C(=O)NC(C)C)CC(c2ccc3ncc(Br)cc3c2)=NO1 (centres unmarked) [compound 517] | – | 80% | 3.41[a] | – | – | – | –
Cc1cnc(CNC(=O)C2(C)CC(c3cc(C)c4ncc(Br)cc4c3)=NO2)cn1 (centres unmarked) [compound 537] | 100% | 100% | 2.84[a] | – | – | – | –
CC1(C(=O)NCC2CCOC2)CC(c2ccc3ncc(Br)cc3c2)=NO1 (centres unmarked) [compound 127] | – | 80% | – | – | – | 2.2^[a] | –
CCn1cc(CNC(=O)C2(C3CC3)CC(c3ccc4ncc(Br)cc4c3)=NO2)c(C)n1 (centres unmarked) [compound 268] | – | 93% | 2.73[a] | – | – | – | –
C#Cc1cnc2ccc(C3=NOC(C)(C(=O)NC(C)c4ccc(Cl)nc4)C3)cc2c1 (centres unmarked) [compound 525] | 93% | 100% | 2.68[a] | – | – | – | –
CCOCCCNC(=O)C1(C(C)C)CC(c2ccc3ncc(Br)cc3c2)=NO1 (centres unmarked) [compound 64] | 70% | 77% | – | – | – | 3.46^[a] | –
CCCOc1cnc2ccc(C3=NOC(C)(C(=O)NCc4cn(CC)nc4C)C3)cc2c1 (centres unmarked) [compound 418] | 83% | 79% | – | 2.46[a] | – | – | –
CCOCCCNC(=O)C1(C(F)F)CC(c2ccc3ncc(I)cc3c2)=NO1 (centres unmarked) [compound 619] | 71% | 73% | 3.19[a] | – | – | – | –
C#Cc1cnc2ccc(C3=NOC(C)(C(=O)NCc4cnc(C)cn4)C3)cc2c1 (centres unmarked) [compound 167] | 100% | 100% | – | – | – | 1.98^[a] | –

SMILES | % of efficacy (protection) (Septoria tritici) | % of efficacy (protection) (Botrytis cinerea) | log P [1, 2] | log P [1, 3] | Log P [1, 4] | log P [1, 5] | chromatographic logP ([1]; pH 2.7)
C#Cc1cnc2ccc(C3=NOC(C)(C(=O)Nc4cn(CC)nc4C)C3)cc2c1 (centres unmarked) [compound 529] | 100% | 100% | 2.26[a] | – | – | – | –
CCOCCCNC(=O)C1(C)CC(c2cc3cc(Br)cnc3c(F)c2F)=NO1 (centres unmarked) [compound 14] | – | 100% | – | – | 2.98^[a] | – | –
C#Cc1cnc2ccc(C3=NOC(C(=O)NCCCOCC)(C(F)F)C3)cc2c1 (centres unmarked) [Compound No. 615] | 79% | 95% | – | – | – | – | 2.73
C#Cc1cnc2ccc(C3=NOC(C)(C(=O)NCc4ccccc4Cl)C3)cc2c1 (centres unmarked) [compound 168] | 71% | 99% | – | – | – | 3.23^[a] | –
CCOCCCNC(=O)C1(OC)CC(c2cc(C)c3ncc(Br)cc3c2)=NO1 (centres unmarked) [compound 597] | 100% | 100% | 3.39[a] | – | – | – | –
C#Cc1cnc2ccc(C3=NOC(C)(C(=O)NCC4(C)CCCO4)C3)cc2c1 (centres unmarked) [compound 128] | 83% | 98% | – | – | – | 2.42^[a] | –
CC1(C(=O)NCc2cnn(-c3ccccc3)c2)CC(c2ccc3ncc(Br)cc3c2)=NO1 (centres unmarked) [compound 202] | – | 87% | – | – | – | 3.11^[a] | –
C#Cc1cnc2ccc(C3=NOC(C)(C(=O)NCc4cccc(OC(F)(F)F)c4)C3)cc2c1 (centres unmarked) [compound 190] | 71% | 89% | – | – | – | 3.48^[a] | –
C#Cc1cnc2ccc(C3=NOC(C)(C(=O)NCc4cn[nH]c4-c4cccs4)C3)cc2c1 (centres unmarked) [compound 192] | 71% | – | – | – | – | 2.25^[a] | –
C#Cc1cc2cc(C3=NOC(C)(C(=O)NC(C)C)C3)ccc2nc1Cl (centres unmarked) [compound 134] | 71% | – | – | – | – | 3.08^[a] | –
C#Cc1cnc2ccc(C3=NOC(C)(C(=O)NCc4ccc(Cl)nc4)C3)cc2c1 (centres unmarked) [compound 160] | 71% | – | – | – | – | 2.44^[a] | –
C#CCCNC(=O)C1(C)CC(c2ccc3ncc(Br)cc3c2)=NO1 (centres unmarked) [compound 353] | 94% | – | 2.52[a] | – | – | – | –
CCn1cc(CNC(=O)C2(Cc3ccccc3)CC(c3ccc4ncc(Br)cc4c3)=NO2)c(C)n1 (centres unmarked) [compound 56] | 70% | – | – | – | – | 3.23^[a] | –
C#Cc1cnc2ccc(C3=NOC(C)(C(=O)NC4CCOCC4)C3)cc2c1 (centres unmarked) [compound 502] | 100% | 98% | – | 2.01[a] | – | – | –
C#Cc1cnc2ccc(C3=NOC(C)(C(=O)NCc4cc(Cl)cc(Cl)c4)C3)cc2c1 (centres unmarked) [compound 193] | – | 74% | – | – | – | 3.71^[a] | –
CCOCCCNC(=O)C1(C(C)O)CC(c2ccc3ncc(Br)cc3c2)=NO1 (centres unmarked) [compound 560] | 97% | – | 2.27[a] | – | – | – | –
C#Cc1cnc2ccc(C3=NOC(C)(C(=O)NCc4cnn(-c5ccccc5)c4)C3)cc2c1 (centres unmarked) [compound 186] | 71% | 92% | – | – | – | 2.78^[a] | –
CCOCCCNC(=O)C1(C)CC(c2cc(Cl)c3ncc(Br)cc3c2)=NO1 (centres unmarked) [compound 542] | 83% | 100% | 3.25[a] | – | – | – | –
C#Cc1cnc2ccc(C3=NOC(OC)(C(=O)N(C(C)C)C4CC4)C3)cc2c1 (centres unmarked) [compound 467] | 97% | – | – | 3.35[a] | – | – | –
CC1(C(=O)NCc2ccc(Cl)nc2)CC(c2ccc3ncc(Br)cc3c2)=NO1 (centres unmarked) [compound 104] | 92% | – | – | – | – | 2.73^[a] | –
C#Cc1cnc2ccc(C3=NOC(C)(C(=O)NC(C)(C#N)C4CC4)C3)cc2c1 (centres unmarked) [compound 523] | 97% | 73% | 2.75[a] | – | – | – | –
